According to US9102648B1, “Bioavailable diacylhydrazine ligands for modulating the expression of exogenous genes via an ecdysone receptor complex” (Intrexon Corporation, priority 2003, dated 2015):
Where two headings read alike, the source gives them in different places.

Experiments:
[1] = target: T1, Bombyx mori EcR (VP16 fusion, CVBE switch construct) (Bombyx mori, UniProt P49881); assay: Z3 Assay (HEK-293 cells with CVBE and 6XEcRE LacZ, β-galactosidase reporter); details: for Fold Induction, Z3 Assay, 3.3 uM: 3.3 uM ligand; for Fold Induction, Z3 Assay, 3.3 uM / Fold Induction, Z3 Assay, 33 uM: ligand treated / DMSO treated cells; for Z3 assay Rel Max FI: maximum fold induction at any concentration relative to that of GS-E ligand; for Fold Induction, Z3 Assay, 33 uM: 33 uM ligand; for fold induction at 3.3 µM: HEK293, read-out: Fold Induction, Z3 Assay, 3.3 uM; for fold induction at 33 µM: HEK293, read-out: Fold Induction, Z3 Assay, 33 uM
T1 sequence (P49881 86-606): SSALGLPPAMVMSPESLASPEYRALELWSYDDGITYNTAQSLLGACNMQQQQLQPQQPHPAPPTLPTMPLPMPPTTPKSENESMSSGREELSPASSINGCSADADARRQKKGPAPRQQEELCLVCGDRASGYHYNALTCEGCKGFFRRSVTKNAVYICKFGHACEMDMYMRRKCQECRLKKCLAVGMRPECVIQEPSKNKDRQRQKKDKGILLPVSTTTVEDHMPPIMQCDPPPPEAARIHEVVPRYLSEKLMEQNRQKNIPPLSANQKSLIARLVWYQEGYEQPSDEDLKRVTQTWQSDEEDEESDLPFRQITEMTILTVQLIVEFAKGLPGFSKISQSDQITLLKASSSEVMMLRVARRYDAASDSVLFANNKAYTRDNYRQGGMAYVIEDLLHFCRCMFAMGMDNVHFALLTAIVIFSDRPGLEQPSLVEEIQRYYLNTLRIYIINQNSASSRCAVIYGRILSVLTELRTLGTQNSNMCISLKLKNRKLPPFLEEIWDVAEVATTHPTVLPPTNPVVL
T1 sequence (P19793 1-462 partner): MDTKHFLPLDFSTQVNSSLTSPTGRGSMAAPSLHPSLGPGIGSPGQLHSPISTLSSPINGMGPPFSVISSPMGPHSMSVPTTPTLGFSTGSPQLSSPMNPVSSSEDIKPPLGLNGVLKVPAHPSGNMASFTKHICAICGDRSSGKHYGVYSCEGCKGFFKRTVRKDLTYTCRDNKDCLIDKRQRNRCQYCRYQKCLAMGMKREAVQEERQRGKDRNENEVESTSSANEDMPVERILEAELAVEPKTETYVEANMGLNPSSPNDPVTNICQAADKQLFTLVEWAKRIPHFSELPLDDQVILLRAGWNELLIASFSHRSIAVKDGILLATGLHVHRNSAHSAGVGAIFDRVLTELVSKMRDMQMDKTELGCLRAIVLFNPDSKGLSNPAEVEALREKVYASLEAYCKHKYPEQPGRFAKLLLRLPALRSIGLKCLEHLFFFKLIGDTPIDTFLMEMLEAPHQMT
Source text: Dr. F. Gage provided a population of stably transformed cells containing CVBE and 6XEcRE as described in Suhr, S. T., Gil, E. B., Senut M. C., Gage, F. H. (1998) Proc. Natl. Acad. Sci. USA 95, 7999-804. Human 293 kidney cells, also referred to as HEK-293 cells, were sequentially infected with retroviral vectors encoding first the switch construct CVBE, and subsequently the reporter construct 6XEcRE Lac Z. The switch construct contained the coding sequence for amino acids 26-546 from Bombyx mori EcR (BE) (Iatrou) inserted in frame and downstream of the VP16 transactivation domain (VBE). A synthetic ATG start codon was placed under the control of cytomegalovirus (CVBE) immediate early promoter and flanked by long terminal repeats (LTR). The reporter construct contained six copies of the ecdysone response element (EcRE) binding site placed upstream of LacZ and flanked on both sides with LTR sequences (6XEcRE).
Dilution cloning was used to isolate individual clones. Clones were selected using 450 ug/mL G418 and 100 ng/mL puromycin. Individual clones were evaluated based on their response in the presence and absence of test ligands.
Human 293 kidney cells stably transformed with CVBE and 6XEcRE LacZ were maintained in Minimum Essential Medium (Mediates, 10-010-CV) containing 10% FBS (Life Technologies, 26140-087), […] G418 (Mediates, 30-234-CR), and […] (Sigma, P-7255), at 37° C. in an atmosphere containing 5% CO2 and were subculture when they reached 75% confluence.
Z3 cells were seeded into 96-well tissue culture plates at a concentration of 2.5×10^3 cells per well and incubated at 37° C. in 5% CO2 for twenty-four hours. Stock solutions of ligands were prepared in DMSO. Ligand stock solutions were diluted 100 fold in media and 50 μL of this diluted ligand solution ([…]) was added to cells. The final concentration of DMSO was maintained at 0.03% in both controls and treatments.
Reporter gene expression was evaluated 48 hours after treatment of cells, β-galactosidase activity was measured using Gal Screen™ bioluminescent reporter gene assay system from Tropix (GSY1000). Fold induction activities were calculated by dividing relative light units (“RLU”) in ligand treated cells with RLU in DMSO treated cells. Luminescence was detected at room temperature using a Dynex MLX microtiter plate luminometer.
Flanking both constructs are long terminal repeats, G418 and puromycin are selectable markers, CMV is the cytomegalovirus promoter, VBE is coding sequence for amino acids 26-546 from Bombyx mori EcR inserted downstream of the VP16 transactivation domain, 6×EcRE is six copies of the ecdysone response element, lacZ encodes for the reporter enzyme β-galactosidase.
(§1) Each assay was conducted in two separate wells, and the two values were averaged. Fold inductions were calculated by dividing relative light units (“RLU”) in ligand treated cells with RLU in DMSO treated cells. EC50s were calculated from dose response data using a three-parameter logistic model.

[2] = target: GAL4 DBD-CfEcR(DEF)/VP16AD-MmRXRE (Choristoneura fumiferana, UniProt O77240); assay: 13B3 Assay (CHO stable cell line, luciferase reporter); details: for Fold Induction, 13B3 Assay, 3.3 uM: 3.3 uM ligand; for Fold Induction, 13B3 Assay, 3.3 uM / Fold Induction, 13B3 Assay, 33 uM: RLU ligand treated / RLU DMSO treated cells; for 13B3 assay Rel Max FI: maximum fold induction at any concentration relative to that of GS-E ligand, CHO 13B3 cells; for Fold Induction, 13B3 Assay, 33 uM: 33 uM ligand; for fold induction at 3.3 µM: read-out: Fold Induction, 13B3 Assay, 3.3 uM; for fold induction at 33 µM: read-out: Fold Induction, 13B3 Assay, 33 uM
Source text: GAL4 DBD-CfEcR(DEF)/VP16AD-MmRXRE:
The wild-type D, E, and F domains from spruce budworm Choristoneura fumiferana EcR (“CfEcR-DEF”; SEQ ID NO: 1) were fused to a GALA DNA binding domain (“Gal4DBD1-147”; SEQ ID NO: 2) and placed under the control of the SV40e promoter of pM vector (PT3119-5, Clontech, Palo Alto, Calif.). The D and E domains from Mus Musculus RXR (“MmRXR-DE”; SEQ ID NO: 11) were fused to the transactivation domain from VP16 (“VP16AD”; SEQ ID NO: 6) and placed under the control of the SV40e promoter of the pVP16 vector (PT3127-5, Clontech, Palo Alto, Calif.).
CHO cells were transiently transfected with transcription cassettes for GAL4 DBD-CJEcR(DEF) and for VP16AD-MmRXRE controlled by SV40e promoters. Stably transfected cells were selected using Hygromycin. Individually isolated CHO cell clones were transiently transfected with a GALA RE-luciferase reporter (pFR-Luc, Stratagene, La Jolla, Calif.). The 13B3 clone was selected using Zeocin.
Cells were trypsinized and diluted to a concentration of 2.5×10^4 cells mL. 100 μL of cell suspension was placed in each well of a 96 well plate and incubated at 37° C. under 5% CO2 for 24 h. Ligand stock solutions were prepared in DMSO and diluted 300 fold for all treatments. Dose response testing consisted of 8 concentrations ranging from 33 μM to 0.01 μM.
Luciferase reporter gene expression was measured 48 h after cell treatment using Bright-Glo™ Luciferase Assay System from Promega (E2650). Luminescence was detected at room temperature using a Dynex MLX microtiter plate luminometer.
as §1

[3] = read-out: Z3 assay EC50, HEK-293 Z3 cells, β-galactosidase reporter, average of two wells
[4] = read-out: 13B3 EC50, CHO 13B3 stable cell line, luciferase reporter, 48 h, average of two wells

Row | Compound | Fold Induction, Z3 Assay, 3.3 uM ([1]; average of two wells) | Z3 assay Rel Max FI ([1]; HEK-293 Z3 cells) | EC50 [1, 3] | Fold Induction, 13B3 Assay, 3.3 uM ([2]; average of two wells) | 13B3 assay Rel Max FI [2] | EC50 [2, 4] | Fold Induction, Z3 Assay, 33 uM ([1]; average of two wells) | Fold Induction, 13B3 Assay, 33 uM ([2]; average of two wells) | EC50 [1] | fold induction at 3.3 µM [1] | fold induction at 33 µM [1] | EC50 [2] | fold induction at 3.3 µM [2] | fold induction at 33 µM [2]
1 | Cc1cc(C)cc(C(=O)N(NC(=O)c2ccc3c(c2C)CCCO3)C(C)(C)C)c1 [RG-102408] | 249 | 1.114 | 54 nM | 25 | 0.662 | 91 nM | – | – | – | – | – | – | – | –
2 | Cc1c(C(=O)NN(C(=O)c2cccc(F)c2)C(C)(C)C)ccc2c1OCCO2 [RG-115350] | 499 | 0.935 | 309 nM | 450 | 0.711 | 795 nM | – | – | – | – | – | – | – | –
3 | CCc1ccc(C(=O)NN(C(=O)c2cc(C)cc(C)c2)C(C)(C)C)cc1CC [RG-101889] | 1085 | – | 3300 nM | – | – | – | 245 | 378 | – | – | – | – | – | –
4 | CCc1c(OC)cccc1C(=O)NN(C(=O)c1cc(C)cc(/C=N/NC(N)=O)c1)C(C)(C)C [RG-115429, semicarbazide of N-(3-formyl-5-methyl-benzoyl)-N-tert-butyl-N′-(2-ethyl-3-methoxy-benzoyl) hydrazide] | – | 0.880 | – | – | 1.065 | – | – | – | 9570 nM | 3 | 1720 | 8680 nM | 18 | 1840
5 | COc1cc(C(=O)N(NC(=O)c2ccc3c(c2C)OCCO3)C(C)(C)C)c([N+](=O)[O-])c(OC)c1C [RG-115609, 3,5-dimethoxy-4-methyl-2-nitrobenzoic acid N-t-butyl-N′-(5-methy-1benzo-1,4-dioxan-6-carbonyl)-hydrazide] | 90 | 0.625 | 1390 nM | 558 | 0.883 | 13800 nM | 383 | 4217 | – | – | – | – | – | –
6 | CCc1ccc(C(=O)NN(C(=O)c2cccc(C)c2)C(C)(C)C)c(F)c1 [RG-115674] | 319 | 0.995 | 229 nM | 442 | 0.875 | 1720 nM | – | – | – | – | – | – | – | –
7 | Cc1cc(C)cc(C(=O)N(NC(=O)c2ccc3ncsc3c2)C(C)(C)C)c1 [RG-101312] | 600 | 0.955 | 5620 nM | – | – | – | 292 | 1874 | – | – | – | – | – | –
8 | COc1cccc(C(=O)NN(C(=O)c2cc(C)cc(C)c2)C(C)(C)C)c1CS(C)(=O)=O [RG-115408, 2-methanesulfonylmethyl-3-methoxy-benzoic acid N′-tert-butyl-N′-(3,5-dimethyl-benzoyl)-hydrazide] | – | 0.01 | – | – | 0 | – | – | – | > 50000 nM | 1 | 3 | > 50000 nM | 1 | –
9 | CCc1c(OC)cccc1C(=O)NN(C(=O)c1cnccn1)C(C)(C)C [RG-115550, pyrazine-2-carboxylic acid N-tert-butyl-N′-(2-ethyl-3-methoxy-benzoyl)-hydrazide] | – | – | – | – | – | – | – | – | – | – | 21 | – | 1 | –
10 | COc1cccc(C(=O)NN(C(=O)c2cc(C)cc(C)c2)C(C)(C)C)c1CO [RG-115371, 3,5-dimethyl-benzoic acid N-tert-butyl-N′-(2-hydroxymethyl-3-methoxy-benzoyl)-hydrazide] | – | 0.76 | – | – | 1.44 | – | – | – | 3020 nM | 249 | 1770 | > 50000 nM | 1 | 1090
11 | CCc1c(OC)cccc1C(=O)NN(C(=O)c1cnc(C)cn1)C(C)(C)C [RG-115091] | – | – | – | – | – | – | 61 | 1 | – | – | – | – | – | –
12 | CCc1c(OC)cccc1C(=O)NN(C(=O)c1cc(F)cc(C(F)(F)F)c1)C(C)(C)C [RG-115088] | 561 | 0.958 | 501 nM | 542 | 0.709 | 1830 nM | 228 | 1048 | – | – | – | – | – | –
13 | COc1cc(C(=O)N(NC(=O)c2cccc(O)c2C)C(C)(C)C)cc(OC)c1C [RG-115220] | 298 | 0.591 | 871 nM | 5 | 0.125 | > 50000 nM | – | 1143 | – | – | – | – | – | –
14 | CCc1c(OC)cccc1C(=O)NN(C(=O)c1ccc(F)cc1)C(C)(C)C [RG-100812] | 1587 | 0.954 | 912 nM | – | – | – | 399 | 202 | – | – | – | – | – | –
